Data set [1] concerns microglial cells. The data set can be described thus: Western blot of cleaved caspase-3 and cleaved PARP in ex vivo cultured microglial cells. The class given is cell-based, mouse. As to the method:
Isolation of microglia, neuron, astrocytes, and oligodendrocytes from the brain. Mice were anaesthetized with a mixture of ketamine (16%) and xylazine (3%) by intraperitoneal injection and then sacrificed under basal conditions by transcardial perfusion with perfusion buffer (Ca^2+/Mg^2+ free HBSS containing 0.5 mM EGTA, 10 mM HEPES and 4.2 mM NaHCO3; pH 7.2). The perfused brain was removed and gently mechanically disaggregated with tweezers in dissociation buffer (HBSS containing 10 mM HEPES and 4.2 mM NaHCO3 supplemented with Type I collagenase (0.05%), Dispase II (25 mg/ml), DNase I (2.5 mg/ml), trypsin inhibitor ([…]); pH 7.5) followed by incubation at 37° C. for 1 hour. The tissue homogenate was centrifuged at 1,350×g for 5 minutes at 4° C. For the isolation of microglia, the digestion enzymes in the tissue homogenate were inactivated by addition of PBS/EDTA containing 5% fetal bovine serum (FBS) and the digested brain bits were triturated gently, passed over a 100 µm filter (Fisher Scientific) and centrifuged. […] The pellet of cells was rinsed in PBS. Any contaminating red blood cells (RBC) were lysed using RBC lysis buffer (Sigma) according to the manufacturer's instructions, rinsed twice with PBS and passed through a 40 µm filter (Fisher Scientific). Cells were then stained for CD11b and CD45 for flow cytometry analysis. The astrocytes were isolated from mouse cortices (n=10). The tissue homogenate was centrifuged at 800×g for 10 minutes at 4° C. following digestion with type II collagenase (1 mg/ml) and type I DNase (10 U/ml) in DMEM for 10 minutes. The cells pelleted by centrifugation were plated in a 100 mm culture dish coated with poly-L-ornithine (Sigma). For the isolation of oligodendrocytes, the glial cells above were cultured in specific media containing T3 and T4 (0.5 mM) as well as platelet-derived growth factor (PDGF, 10 ng/ml) to promote the growth of the different cell types. Isolated glial cells were labelled with the following antibodies against surface markers: CD11b (Biolegend, Cat #101206), CD45 (Biolegend, Cat #147710), GFAP (Biolegend, Cat #837508) and MOG (Biorbyt, Cat #orb412341-FITC). Cells positive for CD11b and CD45Med were identified as microglia. Cells positive for GFAP and negative for CD45 and CD11b were identified as astrocytes. Cells sorted with MOG+CD11b− were identified as oligodendrocytes. Neurons were isolated from mouse brain using the Pierce Primary Neuron Isolation Kit (Thermo Scientific, Cat #88280). Briefly, the tissue homogenate from freshly dissected cortexes was suspended in an equal volume of ice cold HBSS (Sigma) and replaced with Neuronal Isolation Enzyme (with papain) in a 37° C. incubator for 30 minutes. After washing with HBSS, the tissue was cultured in a poly-D-lysine coated plate with Neuronal Culture Medium.
Western blotting. Cells were treated as indicated in individual Figure legends and whole cell extracts (WCE) were prepared in the radioimmunoprecipitation assay (RIPA) buffer (Sigma) with addition of protease and phosphatase inhibitors (Roche). Proteins were separated by 10% SDS-PAGE and transferred to polyvinylidene difluoride (PVDF) membranes (Bio-Rad Laboratories, Inc., Hercules, CA). Dual color precision protein MW markers (BioRad) were separated in parallel. Antibodies were purchased as follows: cleaved-caspase-3 (ab214430), cleaved PARP (ab203467) and GAPDH (ab9657, Abcam) from Abcam; S100A8 (47310) and S100a9 (72590) from Cell Signaling; and Ltf (GTX81085) from GeneTex. The secondary antibodies conjugated to Fluors Alex-488 (A32723) or Alex-594 (A11012) were purchased from Invitrogen (Eugene, OR). The bands were visualized on the Odyssey Imager (LiCor Inc, Lincoln, NE).
(In general: Immunoblotting shows a protein as a band on a membrane.)

Data set [2] deals with S100A8 promoter. The data set can be described thus: Luciferase reporter with S100A8 promoter in microglia. The data set is classed as cell-based, mouse. From the text:
Construction of the S100A8 promoter into the luciferase plasmid vector. To determine the activity of IAA on the promoter of S100A8, a sequence containing 1,037 bp of S100A8 promoter (GENBANK® Accession #: L76381) upstream −1,037 to −1 from transcription start site (TSS) was constructed into the luciferase C1 vector (Addgene, #163523). A DNA fragment was generated by PCR amplification with genomic DNA extracted from mouse liver tissue using DNeasy Blood & Tissue Kits (Qiagen, #69504). PCR was conducted using Q5 High-Fidelity PCR kit (New England Biolabs® Inc.) with the primers 51008A-prom, pLuc163523 and genomic DNA, and luciferase C1 plasmid as the template, respectively. The two PCR products purified using the Gel extraction kit (Qiagen) were seamlessly assembled into the pLuc-S100p using the NEBuilder HiFi DNA Assembly Cloning Kit (New England Biolabs® Inc.). The plasmid pLuc-S100p was transformed into DH5a and selected using kanamycin resistance. The DNA sequence was confirmed by DNA sequencing.
Site-directed mutagenesis within the S100A8 promoter. A mutant of IAA with the potential binding site on the S100A8 promoter was generated with the oligonucleotide primer S1008A-prom-Mut, which was designed to specifically disrupt the putative S100A8 binding site at its promoter (FIG. 3C). Q5® Site-Directed Mutagenesis Kit (New England Biolabs, MA, USA) was used in conjunction with specific primers (Table 3) to introduce S100A8 promoter mutations in the pLuc-S100p construct according to the manufacturer's instructions. After mutant strand synthesis and ligation, resultant plasmids were introduced into E. coli and transformants were selected using kanamycin resistance. The DNA sequence of mutants was confirmed by DNA sequencing.
(A reporter such as luciferase makes a cellular process visible.)

The nature of data set [3]: Surface plasmon resonance (SPR) of biotin-labeled oligos with IAA. The class given is binding. Particulars: biotin labeled oligo on streptavidin sensor chip. How it is done: Surface plasmon resonance (SPR). To identify the binding activity of the metabolite IAA and S100A8 promoter sequence, SPR experiments were conducted on an OPENSPR™ (Nicoya, Lifesciences, CA). Experiments were performed on a streptavidin sensor (Nicoya, Lifesciences). SPR was run at a flow rate of 20 μl/min using HBS running buffer (20 mM HEPES, 150 mM NaCl, pH 7.4). First, the streptavidin sensor chip was cleaned with octyl β-D-glucopyranoside (40 mM) and CHAPS (20 mM). 200 μl of biotin-conjugated oligos (1 μg/ml, Table 5) were injected on the sensor chip for 10 minutes until a stable resonance was obtained. After immobilization of bio-oligo, the surface was blocked with BSA (3%) in running buffer. After a stable signal was obtained, IAA (10 nM) was run over the immobilized bio-oligo until a stable resonance was obtained. A negative control test was also performed by injecting IAA onto a blank sensor chip to check for non-specific binding. The sensograms were analyzed using TraceDrawer kinetic analysis software.

Setting [4] is: added to ex vivo cultured microglial cells from young mice.

Regarding `CC(C)CCN` [IAA, isoamylamine], the “effect on the microglia (cleaved caspase-3)” value in data set [1] (S100A8 deficient microglia cells) is “abolished”. Moreover, in data set [1] (setting [4]), the “cleaved caspase-3” value is on record as “increasing” and the “cleaved poly(-ADP-ribose) polymerase (PARP)” value is “increasing”. Besides, the “effect of IAA on the S100A8 transcription (luciferase)” value in data set [2] (p53 KO microglia with additional p53) is on record as “recovered”. Besides, the “IAA-induced S100A8 activation (luciferase)” value in data set [2] (p53 deficiency (p53 KO microglia)) was “attenuated”. Besides, the “luciferase activity, S100A8 promoter sequence” value in data set [2] (wild-type promoter, microglia, 12 h after IAA) is “activated”.

Regarding “S100p1-G: CTGTGGGCAG CTGGCCAAGC (SEQ ID NO: 8), S100A8 promoter −57 . . . −38 (DNA CTGTGGGCAGCTGGCCAAGC; chemistry not given here)”, the “interaction with IAA (SPR)” value in data set [3] is recorded as “targeted by IAA”.

Source of the values: patent US20250136997A1, “COMPOSITIONS FOR SEQUESTERING ISOAMYL AMINE AND METHODS OF USE THEREFOR” (University of Louisville Research Foundation, Inc., priority 2023, published 2025).
